Active and inactive are the calls of the source. The rule behind the calls is not given here.
Experiments:
[1] = in vivo; conditions: Wistar Han, rat, po, 2 mg/kg
[2] = biological target: Voltage-dependent L-type calcium channel subunit alpha-1C (Homo sapiens, UniProt Q13936); assay: Inhibition of Cav1.2 (unknown origin)
[3] = Volume of distribution at steady state in Beagle dog at 1 mg/kg, iv; format: ADME, organism-based, Canis lupus familiaris; conditions: in vivo, read-out: Vdss
[4] = tested on: Cavia porcellus; assay: Cardiotoxicity in anesthetized cardiovascular guinea pig model assessed as prolongation of QTc interval at 3 mg/kg administered as iv infusion relative to control; format: toxicity, organism-based; conditions: in vivo
[5] = tested on: Rattus norvegicus; assay: Antihypertensive activity in rat spontaneous hypertensive model assessed as change in systolic blood pressure at 3 mg/kg, po qd measured after 3 days; format: functional
[6] = biological target: T1, Inward rectifier potassium channel 2 (Homo sapiens, UniProt P63252); assay: Inhibition of Kir2.1 (unknown origin)
T1 sequence (P63252 whole entry): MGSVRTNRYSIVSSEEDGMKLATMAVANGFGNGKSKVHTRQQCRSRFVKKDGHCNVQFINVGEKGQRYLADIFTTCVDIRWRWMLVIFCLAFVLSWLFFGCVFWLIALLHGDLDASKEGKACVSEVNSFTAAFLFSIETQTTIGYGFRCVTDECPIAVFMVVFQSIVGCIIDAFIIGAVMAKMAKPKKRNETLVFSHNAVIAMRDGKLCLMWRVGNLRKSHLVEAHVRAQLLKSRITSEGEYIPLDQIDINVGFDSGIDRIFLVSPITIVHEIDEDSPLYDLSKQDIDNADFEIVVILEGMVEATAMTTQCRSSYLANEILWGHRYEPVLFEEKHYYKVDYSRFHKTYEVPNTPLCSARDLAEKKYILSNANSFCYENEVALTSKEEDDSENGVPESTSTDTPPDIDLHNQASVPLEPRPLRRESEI

[7] = Unbound fraction in guinea pig plasma at 3 mg/kg administered as iv infusion; format: ADME, organism-based, Cavia porcellus; conditions: in vivo
[8] = Fraction unbound in human plasma; format: ADME, cell-free
[9] = biological target: Sodium channel protein type 5 subunit alpha (Homo sapiens, UniProt Q14524); assay: Inhibition of Nav1.5 (unknown origin)
[10] = Fraction unbound in rat plasma; format: ADME, cell-free
[11] = Half life in Wistar Han rat at 1 mg/kg, iv or 2 mg/kg, po; conditions: in vivo
[12] = biological target: T2, Cytochrome P450 2C8 (Homo sapiens, UniProt P10632); assay: Inhibition of CYP2C8 (unknown origin); format: ADME
T2 sequence (P10632 whole entry): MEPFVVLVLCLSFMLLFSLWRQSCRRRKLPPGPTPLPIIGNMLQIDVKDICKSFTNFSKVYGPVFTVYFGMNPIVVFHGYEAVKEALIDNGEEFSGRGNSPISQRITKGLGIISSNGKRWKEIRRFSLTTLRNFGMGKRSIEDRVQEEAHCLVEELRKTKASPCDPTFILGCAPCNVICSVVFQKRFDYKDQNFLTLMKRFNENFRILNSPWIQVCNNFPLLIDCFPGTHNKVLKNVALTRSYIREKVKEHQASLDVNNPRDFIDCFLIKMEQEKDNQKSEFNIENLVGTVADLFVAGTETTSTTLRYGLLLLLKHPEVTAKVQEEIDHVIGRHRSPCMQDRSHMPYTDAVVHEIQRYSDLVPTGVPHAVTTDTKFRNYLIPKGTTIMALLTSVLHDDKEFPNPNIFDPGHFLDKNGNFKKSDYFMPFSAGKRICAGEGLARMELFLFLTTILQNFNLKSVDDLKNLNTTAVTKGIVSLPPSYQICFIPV

[13] = Half life in Beagle dog at 1 mg/kg, iv; format: ADME, organism-based, Canis lupus familiaris; conditions: in vivo
[14] = species on record: Homo sapiens; assay: Unbound Cmax in human; format: ADME
[15] = Volume of distribution at steady state in Wistar Han rat at 1 mg/kg, iv or 2 mg/kg, po; conditions: in vivo
[16] = biological target: Sodium-dependent serotonin transporter (Homo sapiens, UniProt P31645); assay: Inhibition of human SERT
[17] = Unbound fraction in guinea pig plasma at 7 mg/kg administered as iv infusion; format: ADME, organism-based, Cavia porcellus; conditions: in vivo
[18] = biological target: Cytochrome P450 3A4 (Homo sapiens, UniProt P08684); assay: Time dependent inhibition of CYP3A4 (unknown origin) in presence of NADPH; format: ADME
[19] = biological target: T3, ATP-sensitive inward rectifier potassium channel 1 (Homo sapiens, UniProt P48048); assay: Inhibition of human ROMK expressed in CHO cells at -70 mV holding potential after 6 mins by whole cell patch clamp Qpatch method; format: cell-based
T3 sequence (P48048 whole entry): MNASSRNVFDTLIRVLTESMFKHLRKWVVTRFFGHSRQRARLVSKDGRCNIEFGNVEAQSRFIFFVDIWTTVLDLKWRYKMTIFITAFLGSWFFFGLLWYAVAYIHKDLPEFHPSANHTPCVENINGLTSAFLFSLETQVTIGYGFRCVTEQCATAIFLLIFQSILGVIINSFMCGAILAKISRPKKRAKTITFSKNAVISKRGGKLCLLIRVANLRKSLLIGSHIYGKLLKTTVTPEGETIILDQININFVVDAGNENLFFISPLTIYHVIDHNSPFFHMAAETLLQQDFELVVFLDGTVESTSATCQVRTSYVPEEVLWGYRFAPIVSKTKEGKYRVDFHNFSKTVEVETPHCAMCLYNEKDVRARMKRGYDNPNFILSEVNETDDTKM

[20] = tested on: Rattus norvegicus; assay: Antihypertensive activity in rat spontaneous hypertensive model assessed as induction of natriuresis at 3 mg/kg, po qd measured after 3 days; format: functional, organism-based
[21] = Clearance in Wistar Han rat at 1 mg/kg, iv or 2 mg/kg, po; conditions: in vivo
[22] = species on record: Rattus norvegicus; conditions: in vivo, po, 2 mg/kg
[23] = tested on: Cavia porcellus; assay: Cardiotoxicity in anesthetized cardiovascular guinea pig model assessed as prolongation of QTc interval at 7 mg/kg administered as iv infusion relative to control; format: toxicity, organism-based; conditions: in vivo
[24] = biological target: T4, ATP-sensitive inward rectifier potassium channel 1 (Rattus norvegicus, UniProt P35560); assay: Inhibition of rat ROMK expressed in HEK293 cells after 30 mins by FLIPR based thallium flux assay; format: cell-based
T4 sequence (P35560 whole entry): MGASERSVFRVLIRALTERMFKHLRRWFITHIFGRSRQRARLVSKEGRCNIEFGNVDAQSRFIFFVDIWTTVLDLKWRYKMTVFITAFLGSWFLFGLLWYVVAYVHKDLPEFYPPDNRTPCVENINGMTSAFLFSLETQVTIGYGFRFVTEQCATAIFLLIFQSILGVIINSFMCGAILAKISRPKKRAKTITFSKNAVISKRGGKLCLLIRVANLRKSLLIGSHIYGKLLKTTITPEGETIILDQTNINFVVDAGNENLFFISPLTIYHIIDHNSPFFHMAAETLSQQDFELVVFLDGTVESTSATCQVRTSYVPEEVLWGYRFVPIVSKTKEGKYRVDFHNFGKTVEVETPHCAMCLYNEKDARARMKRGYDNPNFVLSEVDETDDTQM

[25] = tested on: Cavia porcellus; assay: Cardiotoxicity in anesthetized cardiovascular guinea pig model assessed as prolongation of QTc interval administered as iv infusion; format: toxicity, organism-based; conditions: in vivo
[26] = Fraction unbound in dog plasma; format: ADME, cell-free, Canis lupus familiaris

Chain of Voltage-dependent L-type calcium channel subunit alpha-1C (Q13936 whole entry): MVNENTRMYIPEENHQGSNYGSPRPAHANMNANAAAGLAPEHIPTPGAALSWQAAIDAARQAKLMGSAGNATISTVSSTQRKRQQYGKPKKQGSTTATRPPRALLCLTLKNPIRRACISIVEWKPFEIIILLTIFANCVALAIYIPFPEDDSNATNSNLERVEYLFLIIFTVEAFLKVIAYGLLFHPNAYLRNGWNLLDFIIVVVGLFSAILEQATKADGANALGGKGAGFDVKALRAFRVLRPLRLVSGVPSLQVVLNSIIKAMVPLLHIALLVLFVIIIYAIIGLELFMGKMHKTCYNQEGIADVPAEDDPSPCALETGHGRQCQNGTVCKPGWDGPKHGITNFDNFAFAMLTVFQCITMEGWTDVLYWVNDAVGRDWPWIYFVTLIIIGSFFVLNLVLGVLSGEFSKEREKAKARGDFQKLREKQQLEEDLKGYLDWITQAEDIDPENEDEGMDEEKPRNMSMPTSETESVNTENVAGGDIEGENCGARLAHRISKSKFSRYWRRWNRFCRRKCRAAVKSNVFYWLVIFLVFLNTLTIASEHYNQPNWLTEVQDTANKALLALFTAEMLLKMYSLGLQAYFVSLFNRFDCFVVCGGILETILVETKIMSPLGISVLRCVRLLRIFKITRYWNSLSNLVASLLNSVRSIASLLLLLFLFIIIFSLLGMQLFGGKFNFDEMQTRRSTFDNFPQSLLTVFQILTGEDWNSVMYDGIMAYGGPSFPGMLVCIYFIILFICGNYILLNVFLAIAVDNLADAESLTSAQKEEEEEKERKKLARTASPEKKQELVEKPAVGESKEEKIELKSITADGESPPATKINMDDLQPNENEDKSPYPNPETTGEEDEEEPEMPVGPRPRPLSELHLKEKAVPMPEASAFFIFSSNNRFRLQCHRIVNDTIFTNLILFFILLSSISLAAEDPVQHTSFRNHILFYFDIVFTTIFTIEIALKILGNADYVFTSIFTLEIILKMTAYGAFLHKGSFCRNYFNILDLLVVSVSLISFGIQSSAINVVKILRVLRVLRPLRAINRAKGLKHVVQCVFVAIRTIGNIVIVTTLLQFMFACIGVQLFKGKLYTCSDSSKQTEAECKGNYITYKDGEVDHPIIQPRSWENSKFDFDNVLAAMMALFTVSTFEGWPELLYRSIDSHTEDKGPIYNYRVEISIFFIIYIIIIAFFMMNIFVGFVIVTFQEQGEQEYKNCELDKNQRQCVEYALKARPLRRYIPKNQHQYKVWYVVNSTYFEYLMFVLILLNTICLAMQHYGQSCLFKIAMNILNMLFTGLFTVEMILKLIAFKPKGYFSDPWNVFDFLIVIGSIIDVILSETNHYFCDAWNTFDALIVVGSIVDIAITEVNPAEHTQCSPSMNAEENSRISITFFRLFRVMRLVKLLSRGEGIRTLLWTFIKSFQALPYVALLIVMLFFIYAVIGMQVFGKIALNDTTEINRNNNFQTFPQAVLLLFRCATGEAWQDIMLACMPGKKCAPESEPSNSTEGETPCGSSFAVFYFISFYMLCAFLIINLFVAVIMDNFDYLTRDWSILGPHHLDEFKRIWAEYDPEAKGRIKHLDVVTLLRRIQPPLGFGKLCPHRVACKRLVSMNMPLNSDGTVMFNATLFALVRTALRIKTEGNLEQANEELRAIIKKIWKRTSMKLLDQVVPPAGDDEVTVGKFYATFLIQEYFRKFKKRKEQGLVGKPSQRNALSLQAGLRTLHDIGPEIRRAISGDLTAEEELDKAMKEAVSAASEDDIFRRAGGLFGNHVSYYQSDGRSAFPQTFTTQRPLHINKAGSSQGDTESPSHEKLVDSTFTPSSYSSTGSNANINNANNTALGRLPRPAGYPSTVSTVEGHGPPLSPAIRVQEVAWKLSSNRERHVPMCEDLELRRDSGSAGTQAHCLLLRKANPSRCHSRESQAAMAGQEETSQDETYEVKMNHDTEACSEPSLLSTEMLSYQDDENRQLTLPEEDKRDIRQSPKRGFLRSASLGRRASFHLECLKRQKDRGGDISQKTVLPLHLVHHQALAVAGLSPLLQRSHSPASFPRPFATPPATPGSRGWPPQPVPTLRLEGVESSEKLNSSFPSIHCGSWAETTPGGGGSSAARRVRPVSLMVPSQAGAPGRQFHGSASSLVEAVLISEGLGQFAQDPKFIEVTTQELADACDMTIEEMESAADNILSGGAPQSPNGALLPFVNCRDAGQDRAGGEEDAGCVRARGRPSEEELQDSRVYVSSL
Chain of Sodium-dependent serotonin transporter (P31645 whole entry, the tested form may be a part): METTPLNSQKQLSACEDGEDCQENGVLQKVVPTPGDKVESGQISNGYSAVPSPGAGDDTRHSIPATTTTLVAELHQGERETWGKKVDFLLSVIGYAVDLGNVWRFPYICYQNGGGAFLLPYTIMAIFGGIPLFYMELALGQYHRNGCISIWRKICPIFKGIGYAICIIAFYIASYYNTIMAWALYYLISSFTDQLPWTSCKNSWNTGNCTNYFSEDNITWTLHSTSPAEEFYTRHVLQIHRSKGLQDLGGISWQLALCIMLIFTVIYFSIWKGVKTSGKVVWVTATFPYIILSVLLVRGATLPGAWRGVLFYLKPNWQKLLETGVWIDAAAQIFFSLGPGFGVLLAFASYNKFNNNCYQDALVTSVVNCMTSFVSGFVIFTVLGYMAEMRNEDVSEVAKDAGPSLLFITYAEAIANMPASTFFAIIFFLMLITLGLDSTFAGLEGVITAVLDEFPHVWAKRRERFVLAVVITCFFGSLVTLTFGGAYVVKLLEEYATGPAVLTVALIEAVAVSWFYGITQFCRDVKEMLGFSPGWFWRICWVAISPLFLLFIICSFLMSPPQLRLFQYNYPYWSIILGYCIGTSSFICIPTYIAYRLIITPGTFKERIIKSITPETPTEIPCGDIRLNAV
Chain of Sodium channel protein type 5 subunit alpha (Q14524 whole entry): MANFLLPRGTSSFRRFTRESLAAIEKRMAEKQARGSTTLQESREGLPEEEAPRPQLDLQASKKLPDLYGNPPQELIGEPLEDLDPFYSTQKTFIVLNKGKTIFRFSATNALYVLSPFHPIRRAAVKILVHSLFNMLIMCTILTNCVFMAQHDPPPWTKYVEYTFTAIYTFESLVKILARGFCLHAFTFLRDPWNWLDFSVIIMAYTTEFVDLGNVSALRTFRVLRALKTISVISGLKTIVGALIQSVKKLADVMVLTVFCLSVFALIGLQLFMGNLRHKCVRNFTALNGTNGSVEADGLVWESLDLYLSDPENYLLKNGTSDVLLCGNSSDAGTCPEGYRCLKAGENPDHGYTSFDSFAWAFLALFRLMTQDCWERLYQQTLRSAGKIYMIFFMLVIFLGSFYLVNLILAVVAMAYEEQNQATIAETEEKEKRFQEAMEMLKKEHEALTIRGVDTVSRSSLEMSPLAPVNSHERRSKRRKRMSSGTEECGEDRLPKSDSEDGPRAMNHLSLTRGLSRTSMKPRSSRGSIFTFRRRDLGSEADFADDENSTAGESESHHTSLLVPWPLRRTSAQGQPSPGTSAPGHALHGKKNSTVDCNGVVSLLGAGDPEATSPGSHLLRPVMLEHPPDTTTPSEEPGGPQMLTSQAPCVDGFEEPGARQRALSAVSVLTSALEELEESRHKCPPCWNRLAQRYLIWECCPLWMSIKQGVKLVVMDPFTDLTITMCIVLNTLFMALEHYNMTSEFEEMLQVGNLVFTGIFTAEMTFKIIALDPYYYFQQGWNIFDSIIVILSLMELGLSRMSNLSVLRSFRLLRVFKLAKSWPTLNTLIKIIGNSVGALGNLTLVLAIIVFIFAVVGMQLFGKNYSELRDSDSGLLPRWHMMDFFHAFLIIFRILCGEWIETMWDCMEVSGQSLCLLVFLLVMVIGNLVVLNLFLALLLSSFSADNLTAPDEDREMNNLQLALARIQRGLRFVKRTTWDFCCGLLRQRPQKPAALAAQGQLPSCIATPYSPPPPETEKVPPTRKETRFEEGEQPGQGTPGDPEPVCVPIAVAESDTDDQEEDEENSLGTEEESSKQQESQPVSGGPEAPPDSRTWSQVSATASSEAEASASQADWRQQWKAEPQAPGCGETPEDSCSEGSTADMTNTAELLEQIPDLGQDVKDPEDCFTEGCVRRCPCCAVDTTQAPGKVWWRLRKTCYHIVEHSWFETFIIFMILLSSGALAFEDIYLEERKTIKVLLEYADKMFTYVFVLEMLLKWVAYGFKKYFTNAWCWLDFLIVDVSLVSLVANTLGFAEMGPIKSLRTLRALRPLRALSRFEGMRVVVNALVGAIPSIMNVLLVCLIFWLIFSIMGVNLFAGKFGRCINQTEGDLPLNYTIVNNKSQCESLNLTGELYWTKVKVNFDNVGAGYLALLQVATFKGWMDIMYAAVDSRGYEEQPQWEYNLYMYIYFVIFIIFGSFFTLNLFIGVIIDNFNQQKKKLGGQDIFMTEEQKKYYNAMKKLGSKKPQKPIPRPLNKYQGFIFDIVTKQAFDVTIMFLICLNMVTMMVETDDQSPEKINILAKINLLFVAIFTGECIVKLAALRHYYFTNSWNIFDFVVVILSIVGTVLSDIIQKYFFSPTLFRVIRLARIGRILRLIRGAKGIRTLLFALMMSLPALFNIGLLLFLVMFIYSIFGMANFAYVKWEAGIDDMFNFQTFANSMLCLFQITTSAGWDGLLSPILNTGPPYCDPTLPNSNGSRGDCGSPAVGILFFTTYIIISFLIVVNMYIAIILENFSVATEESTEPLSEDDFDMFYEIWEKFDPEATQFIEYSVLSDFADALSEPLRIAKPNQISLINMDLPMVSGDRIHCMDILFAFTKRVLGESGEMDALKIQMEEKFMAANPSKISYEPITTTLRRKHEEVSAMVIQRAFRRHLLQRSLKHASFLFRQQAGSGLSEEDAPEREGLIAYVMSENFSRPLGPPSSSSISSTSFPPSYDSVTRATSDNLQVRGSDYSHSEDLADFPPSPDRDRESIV

- bioavailability [1]: 78%
- Vd [3]: 5 L/kg
- IC50 [6]: > 100 µM
- Cp(f) [7]: 5.3 µM
- fraction unbound [8]: 0.456
- fraction unbound [10]: 0.455
- half-life [11]: 168 min
- IC50 [12]: > 50 µM
- half-life [13]: 348 min
- fCmax [14]: 0.12 µM
- Vd [15]: 3.3 L/kg
- IC50 [16]: 10.4 µM
- Cp(f) [17]: 13.5 µM
- IC50 [18]: > 50 µM
- IC50 [19]: 17 nM
- clearance [21]: 25 mL/min/kg
- AUC/dose [22]: 1.2 µM·kg·h/mg
- IC50 [24]: 38 nM
- fraction unbound [26]: 0.405
Compound: Cc1c([C@@H](O)CN2CCC3(CC2)CCN(c2ccc(=O)n(C)n2)C3=O)ccc2c1COC2=O
- IC50 [2]: > 30 µM
- Activity [4]: 9%
- Activity [5]: -14 mmHg
- IC50 [9]: > 30 µM
- Activity [20]: Active
- Activity [23]: 12%
- Activity [25]: Dose-dependent effect

Reference: ChEMBL document CHEMBL4028831, “Improvement of hERG-ROMK index of spirocyclic ROMK inhibitors through scaffold optimization and incorporation of novel pharmacophores” (Bioorg Med Chem Lett, 2017)
